Experimental data as given in patent US20260207704A1, “STAPLED PEPTIDES AND METHODS THEREOF” (priority 2022, published 2026).

The compounds below were run on DLD1 reporter (assay: reporter assay (DLD1 reporter assay)). Settings: read-out: DLD1 4% Abs IC50; DLD1 4%.
Format: cell-based
Description: Various technologies can be utilized for characterizing and/or assessing provided technologies (e.g., agents (e.g., various peptides), compositions, methods, etc.) in accordance with the present disclosure. As described herein, in some embodiments, a useful technology is or comprises fluorescence polarization. In some embodiments, a useful technology assesses LogP or LogD. In some embodiments, a useful technology is or comprises a CHI LogD assay. In some embodiments, a useful technology assesses solubility. In some embodiments, a useful technology is or comprises NanoBRET. In some embodiments, a useful technology is or comprises a reporter assay (e.g., DLD1 reporter assay). In some embodiments, a useful technology is or comprises alphascreen. Certain useful protocols are described in the Examples. Those skilled in the art appreciate that suitable adjustments may be made to such protocols, e.g., according to specific conditions, agents, purposes, etc.
Various technologies can be utilized to assess technologies of the present disclosure. For example, in some embodiments, solubility, LogD, interactions with targets, etc. of various agents such as stapled peptides were assessed using technologies described in WO 2022/261257 (e.g., those in its Examples). In some embodiments, solubility, shake flask LogD, and binding to beta-catenin were assessed. In some embodiments, an assay for assessing interactions, e.g., with beta-catenin, was fluorescence polarization as described in WO 2022/261257. In some embodiments, an assay was Nano-BRET target engagement assay that assessed beta-catenin/TCF4 engagement as described in WO 2022/261257. In some embodiments, an assay was a reporter assay as reported in Example 4 of WO 2022/261257. In some embodiments, an assay was a COLO320DM proliferation assay as reported in Example 4 of WO 2022/261257.

| Structure (SMILES) | IC50 [nM] |
| --- | --- |
| CC(=O)N1CCC[C@]12CC=CCCCC1(CCCC=CCCCOC(=O)N3CC[C@@]4(C3)NC(=O)[C@H](CCCCNC(=O)CC[C@@H](C(=O)N[C@@H](C)C(N)=O)NC(=O)[C@H](Cc3csc5ccccc35)NC(=O)[C@H](Cc3ccccc3C(F)(F)F)NC4=O)NC(=O)[C@H](Cc3ccccc3)NC(=O)[C@H](C)NC(=O)C(C)(C)NC(=O)[C@H](CN(CC(=O)O)CC(F)(F)F)NC(=O)[C@H](CC(=O)O)NC1=O)NC(=O)[C@H](CC(C)(C)C)NC(=O)[C@H](CC(=O)O)NC2=O (single isomer, unassigned) [I-121, Ac-PL3-Asp-Npg-B5-Asp-TfeGA-Aib-Ala-Phe-Lys*3-PyrS2-2F3MeF-BztA-GlnR*3-Ala-NH2] | 1000 to 5000 |
| CC(=O)N1CCC[C@]12CC=CCCCC1(CCCC=CCCCOC(=O)N3CC[C@@]4(C3)NC(=O)[C@H](CCCCN(C(C)C)C(=O)CCC[C@@H](C(=O)N[C@@H](C)C(N)=O)NC(=O)[C@H](Cc3csc5ccccc35)NC(=O)[C@H](Cc3ccsc3)NC4=O)NC(=O)[C@H](Cc3ccccc3)NC(=O)[C@H](C)NC(=O)[C@H](C)NC(=O)[C@H](Cc3cccc(C(=O)O)c3)NC(=O)[C@H](CC(=O)O)NC1=O)NC(=O)[C@H](CC(C)(C)C)NC(=O)[C@H](CC(=O)O)NC2=O (relative stereo) [I-187, Ac-PL3-Asp-Npg-B5-Asp-3COOHF-Ala-Ala-Phe-iPrLys*3-PyrS2-3Thi-BztA-hGlnR*3-Ala-NH2] | > 5000 |
| CC(=O)N1CCC[C@]12CC=CCCCC1(CCCC=CCCCOC(=O)N3CC[C@@]4(C3)NC(=O)[C@H](CCCCNC(=O)CC[C@@H](C(=O)N[C@@H](CC(C)C)C(=O)N[C@@H](CO)C(N)=O)NC(=O)[C@H](Cc3csc5ccccc35)NC(=O)[C@H](Cc3ccccc3C(F)(F)F)NC4=O)NC(=O)[C@H](Cc3ccccc3)NC(=O)[C@H](C)NC(=O)[C@H](C)NC(=O)[C@H](Cc3cccc(C(=O)O)c3)NC(=O)[C@H](CC(=O)O)NC1=O)NC(=O)[C@H](CC(C)(C)C)NC(=O)[C@H](CC(N)=O)NC2=O (relative stereo) [I-142, Ac-PL3-Asn-Npg-B5-Asp-3COOHF-Ala-Ala-Phe-Lys*3-PyrS2-2F3MeF-BztA-GlnR*3-Leu-Ser-NH2] | > 5000 |
| CC(=O)N1CCC[C@]12CC=CCCCC1(CCCC=CCCCOC(=O)N3CC[C@@]4(C3)NC(=O)[C@H](CCCCNC(=O)CC[C@@H](C(=O)N[C@@H](CC(C)C)C(N)=O)NC(=O)[C@H](Cc3csc5ccccc35)NC(=O)[C@H](Cc3ccccc3C(F)(F)F)NC4=O)NC(=O)[C@H](Cc3ccccc3)NC(=O)[C@H](C)NC(=O)[C@H](CC(C)(C)C)NC(=O)[C@H](Cc3cccc(C(=O)O)c3)NC(=O)[C@H](CC(=O)O)NC1=O)NC(=O)[C@H](CC(C)(C)C)NC(=O)[C@H](CC(=O)O)NC2=O (single isomer, unassigned) [I-109, Ac-PL3-Asp-Npg-B5-Asp-3COOHF-Npg-Ala-Phe-Lys*3-PyrS2-2F3MeF-BztA-GlnR*3-Leu-NH2] | 1000 to 5000 |
| CC(=O)N1CCC[C@]12CC=CCCCC1(CCCC=CCCCOC(=O)N3CC[C@@]4(C3)NC(=O)[C@H](CCCCNC(=O)CC[C@@H](C(=O)N[C@@H](CC(C)C)C(=O)N[C@@H](CO)C(N)=O)NC(=O)[C@H](Cc3csc5ccccc35)NC(=O)[C@H](Cc3ccccc3C(F)(F)F)NC4=O)NC(=O)[C@H](Cc3ccccc3)NC(=O)[C@H](C)NC(=O)C3(CC3)NC(=O)[C@H](Cc3cccc(C(=O)O)c3)NC(=O)[C@H](CC(=O)O)NC1=O)NC(=O)[C@H](CC(C)(C)C)NC(=O)[C@H](CC(=O)O)NC2=O (relative stereo) [I-139, Ac-PL3-Asp-Npg-B5-Asp-3COOHF-Cpg-Ala-Phe-Lys*3-PyrS2-2F3MeF-BztA-GlnR*3-Leu-Ser-NH2] | ≤ 1000 |
| CC(=O)N1CCC[C@]12CC=CCCCC1(CCCC=CCCCOC(=O)N3CC[C@@]4(C3)NC(=O)[C@H](Cc3cn(nn3)CCCC[C@@H](C(N)=O)NC(=O)[C@H](Cc3csc5ccccc35)NC(=O)[C@H](Cc3ccsc3)NC4=O)NC(=O)[C@H](Cc3ccccc3)NC(=O)[C@H](C)NC(=O)[C@H](C)NC(=O)[C@H](Cc3cccc(C(=O)O)c3)NC(=O)[C@H](CC(=O)O)NC1=O)NC(=O)[C@H](CC(C)(C)C)NC(=O)[C@H](CC(=O)O)NC2=O (stereo partly drawn) [I-24, Ac-PL3-Asp-Npg-B5-Asp-3COOHF-Ala-Ala-Phe-sAla*3-PyrS2-3Thi-BztA-TriAzLys*3-NH2] | 1000 to 5000 |
| CC(=O)N1CCC[C@]12CC=CCCCC1(CCCC=CCCCOC(=O)N3CC[C@@]4(C3)NC(=O)[C@H](CCCCNC(=O)CC[C@@H](C(=O)N[C@@H](CC(C)C)C(=O)N[C@@H](CO)C(N)=O)NC(=O)[C@H](Cc3csc5ccccc35)NC(=O)[C@H](Cc3ccccc3C(F)(F)F)NC4=O)NC(=O)[C@H](Cc3ccccc3)NC(=O)[C@H](C)NC(=O)C3(CCCC3)NC(=O)[C@H](Cc3cccc(C(=O)O)c3)NC(=O)[C@H](CC(=O)O)NC1=O)NC(=O)[C@H](CC(C)(C)C)NC(=O)[C@H](CC(=O)O)NC2=O (relative stereo) [I-141, Ac-PL3-Asp-Npg-B5-Asp-3COOHF-CyLeu-Ala-Phe-Lys*3-PyrS2-2F3MeF-BztA-GlnR*3-Leu-Ser-NH2] | ≤ 1000 |
| CC(=O)N1CCC[C@]12CC=CCCCC1(CCCC=CCCCOC(=O)N3CC[C@@]4(C3)NC(=O)[C@H](CCCCNC(=O)CC[C@@H](C(=O)N[C@@H](CC(C)C)C(N)=O)NC(=O)[C@H](Cc3csc5ccccc35)NC(=O)[C@H](Cc3ccccc3C(F)(F)F)NC4=O)NC(=O)[C@H](Cc3ccccc3)NC(=O)[C@H](C)NC(=O)[C@H](C)NC(=O)[C@H](Cc3cccc(C(=O)O)c3)NC(=O)[C@H](CC(=O)O)NC1=O)NC(=O)[C@H](CC1CCCCC1)NC(=O)[C@H](CC(=O)O)NC2=O (single isomer, unassigned) [I-106, Ac-PL3-Asp-Cha-B5-Asp-3COOHF-Ala-Ala-Phe-Lys*3-PyrS2-2F3MeF-BztA-GlnR*3-Leu-NH2] | ≤ 1000 |
| CC(=O)N1CCC[C@]12CC=CCCCC1(CCCC=CCCCOC(=O)N3CC[C@@]4(C3)NC(=O)[C@H](CCCCNC(=O)CC[C@@H](C(=O)NC(C)(C)C(N)=O)NC(=O)[C@H](Cc3csc5ccccc35)NC(=O)[C@H](Cc3ccccc3C(F)(F)F)NC4=O)NC(=O)[C@H](Cc3ccccc3)NC(=O)[C@H](C)NC(=O)[C@H](C)NC(=O)[C@H](CN(CC(=O)O)CC(F)(F)F)NC(=O)[C@H](CC(=O)O)NC1=O)NC(=O)[C@H](CC(C)(C)C)NC(=O)[C@H](CC(=O)O)NC2=O (single isomer, unassigned) [I-127, Ac-PL3-Asp-Npg-B5-Asp-TfeGA-Ala-Ala-Phe-Lys*3-PyrS2-2F3MeF-BztA-GlnR*3-Aib-NH2] | 1000 to 5000 |
| CC(=O)N1CCC[C@]12CC=CCCCC1(CCCC=CCCCOC(=O)N3CC[C@@]4(C3)NC(=O)[C@H](CCCCNC(=O)CC[C@@H](C(=O)N[C@@H](C)C(N)=O)NC(=O)[C@H](Cc3csc5ccccc35)NC(=O)[C@H](Cc3ccccc3C(F)(F)F)NC4=O)NC(=O)[C@H](Cc3ccccc3)NC(=O)[C@H](C)NC(=O)[C@H](CC(C)(C)C)NC(=O)[C@H](Cc3cccc(C(=O)O)c3)NC(=O)[C@H](CC(=O)O)NC1=O)NC(=O)[C@H](CC(C)(C)C)NC(=O)[C@H](CC(=O)O)NC2=O (single isomer, unassigned) [I-99, Ac-PL3-Asp-Npg-B5-Asp-3COOHF-Npg-Ala-Phe-Lys*3-PyrS2-2F3MeF-BztA-GlnR*3-Ala-NH2] | ≤ 1000 |
| CC(=O)N1CCC[C@]12CC=CCCCC1(CCCC=CCCCOC(=O)N3CC[C@@]4(C3)NC(=O)[C@H](CCCCNC(=O)CC[C@@H](C(=O)N[C@H](C(N)=O)C(C)C)NC(=O)[C@H](Cc3csc5ccccc35)NC(=O)[C@H](Cc3ccccc3C(F)(F)F)NC4=O)NC(=O)[C@H](Cc3ccccc3)NC(=O)[C@H](C)NC(=O)[C@H](C)NC(=O)[C@H](CN(CC(=O)O)CC(F)(F)F)NC(=O)[C@H](CC(=O)O)NC1=O)NC(=O)[C@H](CC(C)(C)C)NC(=O)[C@H](CC(=O)O)NC2=O (relative stereo) [I-129, Ac-PL3-Asp-Npg-B5-Asp-TfeGA-Ala-Ala-Phe-Lys*3-PyrS2-2F3MeF-BztA-GlnR*3-Val-NH2] | 1000 to 5000 |
| CC(=O)N1CCC[C@]12CC=CCCCC1(CCCC=CCCCOC(=O)N3CC[C@@]4(C3)NC(=O)[C@H](CCCCNC(=O)CC[C@@H](C(=O)N[C@@H](CC(C)C)C(=O)N[C@@H](CO)C(N)=O)NC(=O)[C@H](Cc3csc5ccccc35)NC(=O)[C@H](Cc3ccccc3C(F)(F)F)NC4=O)NC(=O)[C@H](Cc3ccccc3)NC(=O)[C@H](C)NC(=O)C(C)(C)NC(=O)[C@H](Cc3cccc(C(=O)O)c3)NC(=O)[C@H](CC(=O)O)NC1=O)NC(=O)[C@H](CC(C)(C)C)NC(=O)[C@H](CC(N)=O)NC2=O (relative stereo) [I-144, Ac-PL3-Asn-Npg-B5-Asp-3COOHF-Aib-Ala-Phe-Lys*3-PyrS2-2F3MeF-BztA-GlnR*3-Leu-Ser-NH2] | 1000 to 5000 |

Same assay, conditions: read-out: DLD1 4% Abs IC50; DLD1 reporter, 4%

| Structure (SMILES) | IC50 [nM] |
| --- | --- |
| CC(=O)N1CCC[C@]12CC=CCCCC1(CCCC=CCCCOC(=O)N3CC[C@@]4(C3)NC(=O)[C@H](CCCCNC(=O)CC[C@@H](C(=O)N[C@@H](CCC(=O)O)C(=O)N[C@@H](C)C(N)=O)NC(=O)[C@H](Cc3csc5ccccc35)NC(=O)[C@H](Cc3ccsc3)NC4=O)NC(=O)[C@H](Cc3ccccc3)NC(=O)[C@H](C)NC(=O)C(C)(C)NC(=O)[C@H](Cc3cccc(C(=O)O)c3)NC(=O)[C@H](CC(=O)O)NC1=O)NC(=O)[C@H](CC(C)(C)C)NC(=O)[C@H](CC(=O)O)NC2=O (relative stereo) [I-342, Ac-PL3-Asp-Npg-B5-Asp-3COOHF-Aib-Ala-Phe-Lys*3-PyrS2-3Thi-BztA-GlnR*3-Glu-Ala-NH2] | ≤ 1000 |
